Reference: US5814634A, “Alkylenediamine derivative anti-ulcer drug and antibacterial drug” (Shiseido Co. Ltd., priority 1996, dated 1998)

What was measured:
Male Slc:ICR mice = system: Male Slc:ICR mice; parameters: species or system mouse (male Slc:ICR); conditions: mouse, in vivo
Summary of the method: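 Fasted 5-week-old male mice (3 to 5 per group) received a single oral 2,000 mg/kg dose in 0.5% sodium carboxymethyl cellulose, with vehicle controls. Behavior and body weight were followed daily and organs examined at death or one week post-dose. Toxicity was scored 1-5 from mortality and behavioral or organ findings.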

stress ulcer = test: WIS: Restraint and Water Immersion Stress-Induced Ulcer Inhibition Test; assay type: in vivo, rat (male Crj:SD or Slc:SD); conditions: 100 mg/kg oral, rats, water immersion stress 7 hours
Summary of the method: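 Fasted male SD rats (6–7 weeks, 5–8 per group) received compound orally at 100 mg/kg in 0.3% CMC-Na or 0.05% Tween 80; 10 min later, restraint with water immersion (21 °C) for 7 h. Summed glandular erosion length gave the ulcer index; inhibition (%) versus vehicle controls.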

| SMILES | AT: toxicity at single dose, 5 levels (Male Slc:ICR mice) | WIS: ulcer formation inhibitory rate (stress ulcer) [%] |
| --- | --- | --- |
| CC(C)=CCC/C(C)=C/COc1ccc(C(=O)NCCN2CCOCC2)cc1 [Example 31] | 5 | 54 |
| CC(C)=CCOc1ccc(C(=O)NCCN2CCOCC2)cc1OCC=C(C)C [Example 35] | 4 | 48 |
| CC(C)=CCOc1ccc(C(=O)NCCN2CCOCC2)cc1 [Example 28] | 3 | 64 |
